Assay results from PMC4494766 (Monatshefte Fur Chemie, 2011).
Values after ≈ are worked out from the molar mass of the structure shown.

What follows are compounds tested on M. tuberculosis wild-type strain sp. 210 resistant to PAS, INH, ETB and RFP (assay: Tuberculostatic activity, test-tube successive dilution in Youmans' medium). Conditions: Mycobacterium tuberculosis.
Type: cell-based
Compound `CSC(=NNC(=O)c1ccc(Cl)cc1Cl)SC` [Compound 4, Dimethyl 2,4-dichlorobenzoylcarbonohydrazonodithioate] has an MIC of 50 µg/mL (≈ 162 µM).
`CSC(=NNC(=O)c1ccc(O)cc1)SC` [Compound 10, Dimethyl 4-hydroxybenzoylcarbonohydrazonodithioate] was tested, and the MIC was 25 µg/mL (≈ 97.5 µM).
Compound `COc1ccc(C(=O)NN=C(SC)SC)cc1` [Compound 11, Dimethyl 4-methoxybenzoylcarbonohydrazonodithioate] has an MIC of 25 µg/mL (≈ 92.5 µM).
`CSC(=NNC(=O)c1ccc(Cl)c(Cl)c1)SC` [Compound 5, Dimethyl 3,4-dichlorobenzoylcarbonohydrazonodithioate] gave an MIC of 12.5 µg/mL (≈ 40.4 µM).
`CSC(=NNC(=O)c1cccc(O)c1)SC` [Compound 9, Dimethyl 3-hydroxybenzoylcarbonohydrazonodithioate] gave an MIC of 25 µg/mL (≈ 97.5 µM).
For `COc1cc(C(=O)NN=C(SC)SC)cc(OC)c1OC` [Compound 12, Dimethyl 3,4,5-trimethoxybenzoylcarbonohydrazonodithioate], the MIC was 50 µg/mL (≈ 151 µM).
With `CSC(=NNC(=O)c1ccccc1O)SC` [Compound 8, Dimethyl 2-hydroxybenzoylcarbonohydrazonodithioate] the MIC was 25 µg/mL (≈ 97.5 µM).
`CSC(=NNC(=O)c1ccccc1Cl)SC` [Compound 2, Dimethyl 2-chlorobenzoylcarbonohydrazonodithioate] was tested, and the MIC was 50 µg/mL (≈ 182 µM).
Work on `COc1ccc(CC(=O)NN=C(SC)SC)cc1OC` [Compound 13, Dimethyl 2-(3,4-dimethoxyphenyl)acetylcarbonohydrazonodithioate] yielded an MIC of 50 µg/mL (≈ 159 µM).
In the case of `CSC(=NNC(=O)c1ccc(Cl)cc1)SC` [Compound 3, Dimethyl 4-chlorobenzoylcarbonohydrazonodithioate], the MIC is reported as 25 µg/mL (≈ 91 µM).
`CSC(=NNC(=O)c1ccccc1[N+](=O)[O-])SC` [Compound 6, Dimethyl 2-nitrobenzoylcarbonohydrazonodithioate] gave an MIC of 50 µg/mL (≈ 175 µM).
